Biological target: T1, N-terminal HiBiT tagged BCL6 (Homo sapiens, UniProt P41182)
T1 construct: expressed in transfected cells; host or cells: HT1080 (ATCC CCL-121), stably transduced with lentivirus pLV-UBC-N-HiBiT-BCL6-PGK-puro
Assay: HiBiT based degradation assay
Format: cell-based
Settings: HT1080 cells expressing N-terminal HiBiT tagged BCL6, 5 hours of incubation; for Ymin (5 hr): BCL6 degradation normalized with DMSO control; for DC50: four-parameter logistic model, read-out: EC50 (5 hr)
Text: Human BCL6 protein coding open reading frame fused with N-terminal HiBiT coding sequence was synthesized from Integrated DNA Technologies (IDT). Next, the N-HiBiT-BCL6 sequence was cloned into pLV-UBC-PGK-Puro, a lentivirus plasmid purchased from Vectorbuilder, to generate pLV-UBC-N-HiBiT-BCL6-PGK-puro. Lentiviral particles were generated from Lenti-X™ 293T cells (Clontech) by co-transfection of pLV-UBC-N-HiBiT-BCL6-PGK-puro plasmids and lentiviral packaging plasmid mix (Cellecta). HT1080 [HT1080] (ATCC CCL-121) cells were infected with the lentivirus, and HT1080 cells stably integrated with the lentiviral vectors were established by incubation with 1 μg/mL puromycin (Thermofisher).
HT1080 cells expressing N-terminal HiBiT tagged BCL6 were dispensed into a 384-well plate pre-spotted with compounds at varying concentrations. Five thousand cells were seeded into each well in 40 μL of RPMI 1640 media plus 10% Fetal Bovine Serum (10082-147, Thermofisher). After 5 hours of incubation at 37° C. with 5% CO2, 30 μL of the NANO-GLOR HiBiT Lytic Detection System working solution (Promega) was added to each well and incubated at room temperature for 15 min. After incubation, luminescence was read on a PHERAstar FSX Plate Reader (BMG). BCL6 degradation at each indicated concentration was normalized with DMSO control. The BCL6 degradation curves were plotted using a four-parameter logistic model.

Structure (SMILES)	Ymin (5 hr)	DC50 [nM]
CNC(=O)COc1cc2cc(Nc3nc(N4CCC([C@](C)(O)C5CCN(c6cccc7c(C8CCC(=O)NC8=O)nn(C)c67)CC5)CC4)ncc3Cl)cnc2n(C(C)C)c1=O (stereo in doubt) [Compound 194b, rel-2-((6-((5-chloro-2-(4-((1R)-1-(1-(3-(2,6-dioxopiperidin-3-yl)-1-methyl-1H-indazol-7-yl)piperidin-4-yl)-1-hydroxyethyl)piperidin-1-yl)pyrimidin-4-yl)amino)-1-isopropyl-2-oxo-1,2-dihydro-1,8-naphthyridin-3-yl)oxy)-N-methylacetamide]	+++ (30% ≤ Ymin < 50%)	10 to 100
CNC(=O)COc1cc2cc(Nc3nc(N4CCC(CN5CCN(c6cccc7c(C8CCC(=O)NC8=O)nn(C)c67)[C@@H](C)C5)CC4)ncc3Cl)cnc2n(C(C)C)c1=O (stereo partly drawn) [Compound 169a, 2-((6-((5-chloro-2-(4-(((3S)-4-(3-(2,6-dioxopiperidin-3-yl)-1-methyl-1H-indazol-7-yl)-3-methylpiperazin-1-yl)methyl)piperidin-1-yl)pyrimidin-4-yl)amino)-1-isopropyl-2-oxo-1,2-dihydro-1,8-naphthyridin-3-yl)oxy)-N-methylacetamide]	++++ (Ymin < 30%)	< 10
CNC(=O)COc1cc2cc(Nc3nc(N4CC5(CC[C@@H](Nc6ccc7c(C8CCC(=O)NC8=O)nn(C)c7c6)[C@@H](C)C5)C4)ncc3Cl)cnc2n(C(C)C)c1=O (relative stereo) [Compound 180a, rel-2-((6-((5-chloro-2-((6S,7R)-7-((3-(2,6-dioxopiperidin-3-yl)-1-methyl-1H-indazol-6-yl)amino)-6-methyl-2-azaspiro[3.5]nonan-2-yl)pyrimidin-4-yl)amino)-1-isopropyl-2-oxo-1,2-dihydro-1,8-naphthyridin-3-yl)oxy)-N-methylacetamide]	+++ (30% ≤ Ymin < 50%)	10 to 100
CNC(=O)COc1cc2cc(Nc3nc(N4CC[C@H](CN5CCC(c6ccc7c(C8CCC(=O)NC8=O)nn(C)c7c6)CC5)[C@H](F)C4)ncc3Cl)cnc2n(C(C)C)c1=O (relative stereo) [Compound 242a, 2-((6-((5-chloro-2-((3S,4R)-4-((4-(3-(2,6-dioxopiperidin-3-yl)-1-methyl-1H-indazol-6-yl)piperidin-1-yl)methyl)-3-fluoropiperidin-1-yl)pyrimidin-4-yl)amino)-1-isopropyl-2-oxo-1,2-dihydro-1,8-naphthyridin-3-yl)oxy)-N-methylacetamide]	++++ (Ymin < 30%)	< 10
CNC(=O)COc1cc2cc(Nc3nc(N4CCN(CC5CCN(c6cccc7c(C8CCC(=O)NC8=O)nn(C)c67)CC5)CC4)ncc3Cl)cnc2n(C2CC2)c1=O (centres unmarked) [Compound 150, 2-((6-((5-chloro-2-(4-((1-(3-(2,6-dioxopiperidin-3-yl)-1-methyl-1H-indazol-7-yl)piperidin-4-yl)methyl)piperazin-1-yl)pyrimidin-4-yl)amino)-1-cyclopropyl-2-oxo-1,2-dihydro-1,8-naphthyridin-3-yl)oxy)-N-methylacetamide]	++++ (Ymin < 30%)	< 10
CNC(=O)COc1cc2cc(Nc3cc(N4CCC(CN5CCN(c6ccc7c(C8CCC(=O)NC8=O)nn(C)c7c6)CC5)CC4)ncc3Cl)cnc2n(C(C)C)c1=O (centres unmarked) [Compound 190, 2-[[6-[[5-chloro-2-[4-[[4-[3-(2,6-dioxo-3-piperidyl)-1-methyl-indazol-6-yl]piperazin-1-yl]methyl]-1-piperidyl]-4-pyridyl]amino]-1-isopropyl-2-oxo-1,8-naphthyridin-3-yl]oxy]-N-methyl-acetamide]	++ (50% ≤ Ymin < 70%)	10 to 100
CNC(=O)COc1cc2cc(Nc3nc(N4CCC(C(C)(C)N5CCN(c6ccc7c(C8CCC(=O)NC8=O)nn(C)c7c6)CC5)CC4)ncc3Cl)cnc2n(C(C)C)c1=O (centres unmarked) [Compound 171, 2-[[6-[[5-chloro-2-[4-[1-[4-[3-(2,6-dioxo-3-piperidyl)-1-methyl-indazol-6-yl]piperazin-1-yl]-1-methyl-ethyl]-1-piperidyl]pyrimidin-4-yl]amino]-1-isopropyl-2-oxo-1,8-naphthyridin-3-yl]oxy]-N-methyl-acetamide]	++ (50% ≤ Ymin < 70%)	< 10
CNC(=O)COc1cc2cc(Nc3nc(N4CCN(CC5CCN(c6cccc7c(C8CCC(=O)NC8=O)nn(C)c67)CC5)C(C)(C)C4)ncc3Cl)cnc2n(C(C)C)c1=O (centres unmarked) [Compound 172, 2-[[6-[[5-chloro-2-[4-[[1-[3-(2,6-dioxo-3-piperidyl)-1-methyl-indazol-7-yl]-4-piperidyl]methyl]-3,3-dimethyl-piperazin-1-yl]pyrimidin-4-yl]amino]-1-isopropyl-2-oxo-1,8-naphthyridin-3-yl]oxy]-N-methyl-acetamide]	+++ (30% ≤ Ymin < 50%)	10 to 100
CCn1c(=O)c(OCC(=O)NC)cc2cc(Nc3nc(N4CCN(CC5CCN(c6cccc7c(C8CCC(=O)NC8=O)nn(C)c67)CC5)CC4)ncc3Cl)cnc21 (centres unmarked) [Compound 145, 2-((6-((5-chloro-2-(4-((1-(3-(2,6-dioxopiperidin-3-yl)-1-methyl-1H-indazol-7-yl)piperidin-4-yl)methyl)piperazin-1-yl)pyrimidin-4-yl)amino)-1-ethyl-2-oxo-1,2-dihydro-1,8-naphthyridin-3-yl)oxy)-N-methylacetamide]	++++ (Ymin < 30%)	< 10
CNC(=O)COc1cc2cc(Nc3nc(N4CCCN(CC5CCN(c6cccc7c(C8CCC(=O)NC8=O)nn(C)c67)CC5)CC4)ncc3Cl)cnc2n(C)c1=O (centres unmarked) [Compound 110, 2-((6-((5-chloro-2-(4-((1-(3-(2,6-dioxopiperidin-3-yl)-1-methyl-1H-indazol-7-yl)piperidin-4-yl)methyl)-1,4-diazepan-1-yl)pyrimidin-4-yl)amino)-1-methyl-2-oxo-1,2-dihydro-1,8-naphthyridin-3-yl)oxy)-N-methylacetamide]	+++ (30% ≤ Ymin < 50%)	10 to 100
CNC(=O)COc1cc2cc(Nc3nc(N4CCN(CC5CCN(c6ccc7c(C8CCC(=O)NC8=O)nn(C)c7c6)CC5)[C@@H](CO)C4)ncc3Cl)cnc2n(C(C)C)c1=O (stereo partly drawn) [Compound 153a, 2-((6-((5-chloro-2-((3R)-4-((1-(3-(2,6-dioxopiperidin-3-yl)-1-methyl-1H-indazol-6-yl)piperidin-4-yl)methyl)-3-(hydroxymethyl)piperazin-1-yl)pyrimidin-4-yl)amino)-1-isopropyl-2-oxo-1,2-dihydro-1,8-naphthyridin-3-yl)oxy)-N-methylacetamide]	+++ (30% ≤ Ymin < 50%)	< 10
CNC(=O)COc1cc2cc(Nc3nc(N4CCC5(CC4)CC(N4CCN(c6ccc7c(C8CCC(=O)NC8=O)nn(C)c7c6)CC4)C5)ncc3Cl)cnc2n(C(C)C)c1=O (centres unmarked) [Compound 229, 2-[[6-[[5-chloro-2-[2-[4-[3-(2,6-dioxo-3-piperidyl)-1-methyl-indazol-6-yl]piperazin-1-yl]-7-azaspiro[3.5]nonan-7-yl]pyrimidin-4-yl]amino]-1-isopropyl-2-oxo-1,8-naphthyridin-3-yl]oxy]-N-methyl-acetamide]	++++ (Ymin < 30%)	< 10
CNC(=O)COc1cc2cc(Nc3nc(N4CCN([C@H](C)C5CCN(c6cccc7c(C8CCC(=O)NC8=O)nn(C)c67)CC5)CC4)ncc3Cl)cnc2n(C(C)C)c1=O (single isomer, unassigned) [Compound 195b]	+++ (30% ≤ Ymin < 50%)	10 to 100
CNC(=O)COc1cc2cc(Nc3nc(N4C[C@@H](C)N(CC5CCN(c6cccc7c(C8CCC(=O)NC8=O)nn(C)c67)CC5)C[C@@H]4C)ncc3Cl)cnc2n(C(C)C)c1=O (stereo partly drawn) [Compound 179b, 2-[[6-[[5-chloro-2-[(2S,5R)-4-[[1-[3-(2,6-dioxo-3-piperidyl)-1-methyl-indazol-7-yl]-4-piperidyl]methyl]-2,5-dimethyl-piperazin-1-yl]pyrimidin-4-yl]amino]-1-isopropyl-2-oxo-1,8-naphthyridin-3-yl]oxy]-N-methyl-acetamide]	+++ (30% ≤ Ymin < 50%)	100 to 1000
CNC(=O)COc1cc2cc(Nc3nc(N4CC5(CCC(CN6CCN(c7ccc8c(C9CCC(=O)NC9=O)nn(C)c8c7)CC6)CC5)C4)ncc3Cl)cnc2n(C(C)C)c1=O (centres unmarked) [Compound 205, 2-((6-((5-chloro-2-(7-((4-(3-(2,6-dioxopiperidin-3-yl)-1-methyl-1H-indazol-6-yl)piperazin-1-yl)methyl)-2-azaspiro[3.5]nonan-2-yl)pyrimidin-4-yl)amino)-1-isopropyl-2-oxo-1,2-dihydro-1,8-naphthyridin-3-yl)oxy)-N-methylacetamide]	++++ (Ymin < 30%)	< 10
CNC(=O)COc1cc2cc(Nc3nc(N4CC5(CC(Nc6ccc7c(C8CCC(=O)NC8=O)nn(C)c7c6)C5)C4)ncc3Cl)cnc2n(C(C)C)c1=O (centres unmarked) [Compound 202, 2-[[6-[[5-chloro-2-[6-[[3-(2,6-dioxo-3-piperidyl)-1-methyl-indazol-6-yl]amino]-2-azaspiro[3.3]heptan-2-yl]pyrimidin-4-yl]amino]-1-isopropyl-2-oxo-1,8-naphthyridin-3-yl]oxy]-N-methyl-acetamide]	++++ (Ymin < 30%)	< 10

Source: patent US20260241012A1, “1,8-NAPHTHYRIDIN-2-ONE HETEROBIFUNCTIONAL BCL6 DEGRADERS” (Treeline Biosciences, Inc., priority 2022, published 2026)
